Test results as given in paper PMC9780888, “4-Isobutylmethcathinone—A Novel Synthetic Cathinone with High In Vitro Cytotoxicity and Strong Receptor Binding Preference of Enantiomers” (Pharmaceuticals, 2022).
Structures can show the parent of a compound that is named as a salt.

How the values were obtained:
dopamine receptor DAR3 = target: T1, dopamine receptor DAR3 (Homo sapiens, UniProt P35462); assay: PRESTO-Tango β-arrestin 2 recruitment assay, DAR3; type: cell-based; conditions: for increase in RLU compared to the control: DAR3, 500 nM
T1 construct: host or cells: HTLA (HEK 293-derived)
T1 sequence (P35462 whole entry): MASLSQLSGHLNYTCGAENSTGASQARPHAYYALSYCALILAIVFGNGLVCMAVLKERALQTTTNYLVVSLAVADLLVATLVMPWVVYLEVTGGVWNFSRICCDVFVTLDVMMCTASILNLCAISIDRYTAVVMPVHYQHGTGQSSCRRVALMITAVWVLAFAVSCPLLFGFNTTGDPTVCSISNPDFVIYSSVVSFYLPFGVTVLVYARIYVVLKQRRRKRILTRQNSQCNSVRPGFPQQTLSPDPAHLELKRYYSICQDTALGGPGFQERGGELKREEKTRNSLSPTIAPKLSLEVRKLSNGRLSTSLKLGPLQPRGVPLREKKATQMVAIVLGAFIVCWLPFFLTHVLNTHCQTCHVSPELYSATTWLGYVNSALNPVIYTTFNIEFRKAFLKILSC
Text: (§1) However, binding to a specific receptor/transporter and, thus, the mechanism of action of a given cathinone always depends on the specific structure of the evaluated compound [37]. In this study, the binding activity of IBMcat and its enantiomers was verified by PRESTO-Tango (parallel receptor expression and screening via transcriptional output, with transcriptional activation following arrestin-2 translocation) assay using the HTLA cell line stably producing β-arrestin-2 in a fusion with TEV and luciferase production driven by tTA. For this purpose, the HTLA cells were transiently transfected with plasmid DNA encoding the dopamine receptors type 1-4 (DAR1-4), which also contain the TEV protease cleavage site followed by tTA at the 3’-end (DAR1-Tango, DAR2-Tango, DAR3-Tango, DAR4-Tango). In the case of the receptor activation by a ligand, in transfected cells, the receptor is desensitized by β-arrestin fused to TEV protease. This brings the TEV protease close to the site that specifically cleaves and, thus, the transcription factor can be cleaved. The transcription factor then translocates to the cell nucleus, in which it triggers the transcription of the target gene for luciferase production which can be determined by the light emitted from luciferin conversion to oxyluciferin. Here, the pronounced luminescence was recorded for all DAR1-4 types in HTLA cells treated with IBMCat and its enantiomers (Figure 8).
(§2) The HTLA cell line was used for the PRESTO-Tango β-arrestin recruitment assay. […]
(§3) The transfected HTLA cells were incubated for 24 h, and then 1 × 10^4 cells were seeded per well of a white 96-well clear bottom plate (Brand, Germany) in 40 μL of DMEM with 1% charcoal-stripped FBS (Thermo Fisher Scientific, USA). […] After 5 min., the luminescence was measured using a multi-mode microplate reader SpectraMax iD5 (Molecular Devices, San Jose, CA, USA) measuring the entire wavelength spectrum. All samples were measured in quadruplicates. The data were evaluated by Prism 7 software (GraphPad, San Jose, CA, USA).

dopamine receptor DAR4 = target: T2, dopamine receptor DAR4 (Homo sapiens, UniProt P21917); assay: PRESTO-Tango β-arrestin 2 recruitment assay, DAR4; type: cell-based; conditions: DAR4, 0-500 nM
T2 construct: host or cells: HTLA (HEK 293-derived)
T2 sequence (P21917 1-419): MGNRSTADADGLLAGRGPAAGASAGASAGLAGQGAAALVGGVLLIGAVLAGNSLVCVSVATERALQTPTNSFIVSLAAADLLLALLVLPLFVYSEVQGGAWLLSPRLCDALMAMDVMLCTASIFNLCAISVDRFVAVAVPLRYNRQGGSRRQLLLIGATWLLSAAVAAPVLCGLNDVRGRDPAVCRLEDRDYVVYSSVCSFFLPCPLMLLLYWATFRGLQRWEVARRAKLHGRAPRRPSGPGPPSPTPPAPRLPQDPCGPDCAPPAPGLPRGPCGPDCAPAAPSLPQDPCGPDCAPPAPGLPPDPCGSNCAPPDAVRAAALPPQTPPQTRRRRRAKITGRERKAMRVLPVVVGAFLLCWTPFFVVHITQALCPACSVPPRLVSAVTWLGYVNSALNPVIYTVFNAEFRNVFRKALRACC
Text: as §1, §2, §3

Row | SMILES | increase in RLU compared to the control (dopamine receptor DAR3) [fold] | maximum increase in RLU compared to untreated control (dopamine receptor DAR4) [fold] | effect on DAR3-expressing cells (dopamine receptor DAR3; 0-500 nM)
1 | CNC(C)C(=O)c1ccc(CC(C)C)cc1.Cl (stereo not drawn) [IBMcat, 4-isobutylmethcathinone hydrochloride] | 5 | 2 | 
2 | CN[C@@H](C)C(=O)c1ccc(CC(C)C)cc1 [S-IBMCat, (S)-4-isobutylmethcathinone hydrochloride] | 6.5 | 2 | 
3 | CN[C@H](C)C(=O)c1ccc(CC(C)C)cc1 [R-IBMCat] |  | 1.5 | no effect
